Results: patent publication US20100160369A1, “S1P1 Agonists and Methods of Making And Using” (EXELIXIS, INC., priority 2008, published 2010)

Molecular target: S1P1 (Homo sapiens, UniProt P21453)
Assay: Tango β-arrestin Recruitment Assay in U2OS cells (Assay 2b)
Type: cell-based
Parameters: linker with TEV protease (N1a) cleavage site (C)
Conditions: Tango β-arrestin Recruitment Assay, read-out: Assay 2b EC50
Source text: For the Tango™ β-arrestin recruitment assay, the cytoplasmic C-terminus of S1P1 is tethered to the tTA transcriptional activator with a linker that contains a cleavage site for the N1a protease from tobacco etch virus (TEV protease). The C-terminus of the human β-arrestin2 protein is fused to TEV protease. Binding of an agonist recruits the β-arrestin-TEV fusion protein to the receptor resulting in cleavage of the linker and release of tTA to enter the nucleus and subsequently activate a tTA-dependent luciferase reporter gene.
Alternatively, U2OS cells expressing the reporter gene and S1P1 (Invitrogen) were added to the wells of a 384-well white opaque bottom assay plate (PerkinElmer) at […] per well. The cells were serum starved for 48 h in Freestyle medium (Invitrogen). Test compounds were tested at maximum concentrations of 1 μM for the agonist assay. Compounds were diluted in DMSO (10 concentration points, 3-fold each) and added to the assay plate at a 1% final DMSO concentration. The efficacy control was 1 μM S1P (Avanti). For each compound, there were duplicate assay plates and each assay plate had duplicate wells per concentration point. The plate was incubated overnight at 37° C. The GeneBLAzer β-lactamase assay reagent (Invitrogen) was added and the plates were incubated for an additional 2 h at room temperature. Fluorescence was measured using an EnVision plate reader (PerkinElmer, Waltham, Mass.) at an excitation wavelength of 409 nm and emission wavelengths of 460 nm and 530 nm. The emission intensity at each wavelength was background subtracted against wells containing medium only and the F460 nm/F530 nm ratio determined for each concentration of the test compounds. Percent activity was calculated as [(test compound ratio−DMSO ratio)/(positive control ratio−DMSO ratio)*100], where the positive control and DMSO ratios are from cells incubated with the efficacy control 1 μM S1P and 1% DMSO, respectively. The percent activities were plotted against compound concentration to determine EC50 using XLFit (IDBS).
Assay 1 is the CNG cAMP Assay as described in Biological Example 1. Assay 2a and 2b are the Tango™ β-arrestin Recruitment Assay in HEK293 and U2OS cells, respectively, as described in Biological Example 2. Assay 3a is the hS1P1R GTPγS Binding Assay as described in Biological Example 3. Assay 3b is the GTP-Eu Binding Assay as described in Biological Example 3. EC50's were measured unless otherwise noted. […] In the table, “nt” means the Compound was not tested and “no” means the compound was tested but had no measurable activity under the assay conditions employed.

S1P1, sequence (P21453 whole entry): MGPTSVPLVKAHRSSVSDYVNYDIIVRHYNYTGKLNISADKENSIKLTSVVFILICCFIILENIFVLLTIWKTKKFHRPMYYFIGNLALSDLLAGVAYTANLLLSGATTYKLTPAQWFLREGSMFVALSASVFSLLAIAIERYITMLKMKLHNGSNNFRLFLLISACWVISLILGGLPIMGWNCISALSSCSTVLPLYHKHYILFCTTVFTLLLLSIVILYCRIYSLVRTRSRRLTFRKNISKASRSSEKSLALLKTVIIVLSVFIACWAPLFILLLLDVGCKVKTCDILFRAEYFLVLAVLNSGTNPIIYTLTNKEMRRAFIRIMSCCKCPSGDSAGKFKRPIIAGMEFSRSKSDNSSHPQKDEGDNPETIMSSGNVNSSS
S1P1, sequence (P32121 whole entry partner): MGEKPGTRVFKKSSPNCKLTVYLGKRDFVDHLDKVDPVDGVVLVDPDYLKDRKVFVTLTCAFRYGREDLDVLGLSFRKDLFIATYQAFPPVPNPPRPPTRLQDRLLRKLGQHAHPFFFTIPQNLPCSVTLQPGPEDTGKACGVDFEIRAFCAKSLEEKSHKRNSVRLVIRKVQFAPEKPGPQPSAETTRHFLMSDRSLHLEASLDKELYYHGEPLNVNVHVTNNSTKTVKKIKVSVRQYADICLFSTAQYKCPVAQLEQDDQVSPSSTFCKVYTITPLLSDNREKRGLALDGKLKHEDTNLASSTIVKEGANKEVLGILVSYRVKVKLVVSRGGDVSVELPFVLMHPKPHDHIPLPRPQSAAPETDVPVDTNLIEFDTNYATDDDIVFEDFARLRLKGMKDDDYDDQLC

Structure (SMILES)	EC50 [nM]
OCC(O)CNc1cc(Cl)c(-c2noc(-c3cn4cc(C(F)(F)F)cc(Cl)c4n3)n2)cc1Cl (centres unmarked) [Entry 29]	≤ 100
OCCNc1cc(Cl)c(-c2noc(-c3cn4cc(C(F)(F)F)cc(Cl)c4n3)n2)cc1Cl [Entry 30]	≤ 100
N[C@H](CO)COc1cc(Cl)c(-c2nnc(-c3cn4cc(C(F)(F)F)ccc4n3)s2)cc1F [Entry 43]	≤ 100
CC(N)(CO)COc1cc(Cl)c(-c2nnc(-c3cn4cc(C(F)(F)F)ccc4n3)s2)cc1F (centres unmarked) [Entry 44]	≤ 100
COc1ccc2nc(-c3nnc(-c4cc(F)c(OCC(N)CO)cc4Cl)s3)cn2c1 (centres unmarked) [Entry 45]	≤ 100
O=C(COc1cc(Cl)c(-c2noc(-c3cn4cc(C(F)(F)F)cc(Cl)c4n3)n2)cc1Cl)COP(=O)(O)O [Entry 51]	≤ 100
OCC(CO)NCCOc1cc(Cl)c(-c2noc(-c3cn4cc(C(F)(F)F)cc(Cl)c4n3)n2)cc1Cl [Entry 65]	≤ 100
NC(CO)COc1cc(Cl)c(-c2nnc(-c3cn4cc(C(F)(F)F)ccc4n3)s2)cc1Cl (centres unmarked) [Example 100, 2-amino-3-[(2,5;dichloro-4-{5-[6-(trifluomethyl)imidazo[1,2-a]pyridin-2-yl] 1,3,4-thiadiazol-2-yl}phenyl)oxy]propan-1-ol]	≤ 100
NC(CO)COc1cc(Cl)c(-c2nnc(-c3cn4cc(Cl)ccc4n3)s2)cc1F (centres unmarked) [Example 101, 2-amino-3-({5-chloro-4-[5-(6-chloroimidazo[1,2-a]pyridin-2-yl)-1,3,4-thiadiazol-2-yl]-2-fluorophenyl}oxy)propan-1-ol]	≤ 100
NC(CO)COc1cc(Cl)c(-c2nnc(-c3cn4cc(I)ccc4n3)s2)cc1F (centres unmarked) [Example 102, 2-amino-3-({5-chloro-2-fluoro-4-[5-(6-iodoimidazo[1,2-a]pyridin-2-yl)-1,3,4-thiadiazol-2-yl]phenyl}oxy)propan-1-ol]	≤ 100
NC(CO)(CO)CCc1cc(Cl)c(-c2noc(-c3cn4cc(C(F)(F)F)cc(Cl)c4n3)n2)cc1F [Example 154, 2-amino-2-[2-(5-chloro-4-{5-[8-chloro-6-(trifluoromethyl)imidazo[1,2-a]pyridin-2-yl]-1,2,4-oxadiazol-3-yl}-2-fluorophenyl)ethyl]propane-1,3-diol]	≤ 100
O=C(O)C1CC1c1cc(Cl)c(-c2noc(-c3cn4cc(C(F)(F)F)cc(Cl)c4n3)n2)cc1Cl (centres unmarked) [Example 211, 2-(2,5-dichloro-4-{5-[8-chloro-6-(trifluoromethyl)imidazo[1,2-a]pyridin-2-yl]-1,2,4-oxadiazol-3-yl}phenyl)cyclopropanecarboxylic acid]	≤ 100
CC(CCc1cc(Cl)c(-c2noc(-c3cn4cc(C(F)(F)F)cc(Cl)c4n3)n2)cc1Cl)OP(=O)(O)O (centres unmarked) [Example 221, 3-(2,5-dichloro-4-{5-[8-chloro-6-(trifluoromethyl)imidazo[1,2-a]pyridin-2-yl]-1,2,4-oxadiazol-3-yl}phenyl)-1-methylpropyl dihydrogen phosphate]	≤ 100

Continued, values first:

EC50 [nM]	Structure (SMILES)
≤ 100	O=C(COc1cc(Cl)c(-c2noc(-c3cn4cc(C(F)(F)F)cc(Cl)c4n3)n2)cc1Cl)C(F)(F)F [Entry 18]
≤ 100	O=C(CO)COc1cc(Cl)c(-c2noc(-c3cn4cc(C(F)(F)F)cc(Cl)c4n3)n2)cc1Cl [Entry 34]
≤ 100	CC(N)(CO)COc1cc(Cl)c(-c2nnc(-c3cn4cc(C(F)(F)F)cc(Cl)c4n3)s2)cc1F (centres unmarked) [Entry 46]
≤ 100	O=P(O)(O)COc1cc(Cl)c(-c2noc(-c3cn4cc(C(F)(F)F)cc(Cl)c4n3)n2)cc1Cl [Entry 52]
≤ 100	O=P(O)(O)OCC(O)COc1cc(Cl)c(-c2noc(-c3cn4cc(C(F)(F)F)cc(Cl)c4n3)n2)cc1Cl (centres unmarked) [Entry 53]
≤ 100	NC(CO)COc1cc(Cl)c(-c2nc(-c3cn4cc(C(F)(F)F)cc(Cl)c4n3)no2)cc1Cl (centres unmarked) [Example 80, 2-amino-3-[(2,5-dichloro-4-{3-[8-chloro-6-(trifluoromethyl)imidazo[1,2-a]pyridin-2-yl]-1,2,4-oxadiazol-5-yl}phenyl)oxy]propan-1-ol]
≤ 100	NC(COc1cc(Cl)c(-c2nnc(-c3cn4cc(C(F)(F)F)cc(Cl)c4n3)s2)cc1F)COP(=O)(O)O (centres unmarked) [Example 82, 2-amino-3-[(5-chloro-4-{5-[8-chloro-6-(trifluoromethyl)imidazo[1,2-a]pyridin-2-yl]-1,3,4-thiadiazol-2-yl}-2-fluorophenyl)oxy]propyl dihydrogen phosphate]
≤ 100	C[C@H](CO)Oc1cc(Cl)c(-c2noc(-c3cn4cc(C(F)(F)F)cc(Cl)c4n3)n2)cc1Cl [Example 155, (2R)-2-[(2,5-dichloro-4-{5-[8-chloro-6-(trifluoromethyl)imidazo[1,2-a]pyridin-2-yl]-1,2,4-oxadiazol-3-yl}phenyl)oxy]propan-1-ol]
≤ 100	C[C@@H](CO)Oc1cc(Cl)c(-c2noc(-c3cn4cc(C(F)(F)F)cc(Cl)c4n3)n2)cc1Cl [Example 156, (2S)-2-[(2,5-dichloro-4-{5-[8-chloro-6-(trifluoromethyl)imidazo[1,2-a]pyridin-2-yl]-1,2,4-oxadiazol-3-yl}phenyl)oxy]propan-1-ol]
≤ 100	CC(O)COc1cc(Cl)c(-c2nc(-c3cn4cc(C(F)(F)F)cc(Cl)c4n3)no2)cc1Cl (centres unmarked) [Example 178, 1-[(2,5-dichloro-4-{3-[8-chloro-6-(trifluoromethyl)imidazo[1,2-a]pyridin-2-yl]-1,2,4-oxadiazol-5-yl}phenyl)oxy]propan-2-ol]
100 to 500	CC(O)COc1cc(Cl)c(-c2nnc(-c3cn4cc(C(F)(F)F)cc(Cl)c4n3)o2)cc1F (centres unmarked) [Example 179, 1-[(5-chloro-4-{5-[8-chloro-6-(trifluoromethyl)imidazo[1,2-a]pyridin-2-yl]-1,3,4-oxadiazol-2-yl}-2-fluorophenyl)oxy]propan-2-ol]
≤ 100	CC(O)COc1cc(Cl)c(-c2nc(-c3cn4cc(C(F)(F)F)cc(Cl)c4n3)no2)cc1F (centres unmarked) [Example 184, 1-[(5-chloro-4-{3-[8-chloro-6-(trifluoromethyl)imidazo[1,2-a]pyridin-2-yl]-1,2,4-oxadiazol-5-yl}-2-fluorophenyl)oxy]propan-2-ol]
≤ 100	CC(O)CCc1cc(Cl)c(-c2noc(-c3cn4cc(C(F)(F)F)cc(Cl)c4n3)n2)cc1Cl (centres unmarked) [Example 185, 4-(2,5-dichloro-4-{5-[8-chloro-6-(trifluoromethyl)imidazo[1,2-a]pyridin-2-yl]-1,2,4-oxadiazol-3-yl}phenyl)butan-2-ol]
≤ 100	N[C@@H](CO)COc1cc(Cl)c(-c2nnc(-c3cn4cc(C(F)(F)F)cc(Cl)c4n3)s2)cc1Cl [Example 201, (2S)-2-amino-3-[(2,5-dichloro-4-{5-[8-chloro-6-(trifluoromethyl)imidazo[1,2-a]pyridin-2-yl]-1,3,4-thiadiazol-2-yl}phenyl)oxy]propan-1-ol]
≤ 100	NC(CO)COc1cc(Cl)c(-c2nnc(-c3cn4cc(C(F)(F)F)cc(Cl)c4n3)s2)cc1Cl (centres unmarked) [Example 220, 2-amino-3-[(2,5-dichloro-4-{5-[8-chloro-6-(trifluoromethyl)imidazo[1,2-a]pyridin-2-yl]-1,3,4-thiadiazol-2-yl}phenyl)oxy]propan-1-ol]
≤ 100	NC(CO)COc1cc(Cl)c(-c2nnc(-c3cn4cc(C(F)(F)F)cc(Cl)c4n3)o2)cc1F (centres unmarked) [Example 222, 2-amino-3-[(5-chloro-4-{5-[8-chloro-6-(trifluoromethyl)imidazo[1,2-a]pyridin-2-yl]-1,3,4-oxadiazol-2-yl}-2-fluorophenyl)oxy]propan-1-ol]
≤ 100	OC(COc1cc(Cl)c(-c2noc(-c3cn4cc(C(F)(F)F)cc(Br)c4n3)n2)cc1Cl)C(F)(F)F (centres unmarked) [Example 294, 3-[(4-{5-[8-bromo-6-(trifluoromethyl)imidazo[1,2-a]pyridin-2-yl]-1,2,4-oxadiazol-3-yl}-2,5-dichlorophenyl)oxy]-1,1,1-trifluoropropan-2-ol]

Same assay, conditions: Tango β-arrestin Recruitment Assay, relative EC50 was measured (footnote 1), read-out: Assay 2b Relative EC50

EC50 [nM]	Structure (SMILES)
100 to 500	CC(C)(CO)Oc1cc(Cl)c(-c2noc(-c3cn4cc(C(F)(F)F)cc(Cl)c4n3)n2)cc1Cl [Entry 26]

Same assay, conditions: Tango β-arrestin, footnote 1: Relative EC50 was measured, read-out: Assay 2b Relative EC50

EC50 [nM]	Structure (SMILES)
100 to 500	NC(CO)COc1cc(Cl)c(-c2nnc(-c3cn4cc(C(F)(F)F)cc(Cl)c4n3)o2)cc1Cl (centres unmarked) [Example 202, 2-amino-3-[(2,5-dichloro-4-{5-[8-chloro-6-(trifluoromethyl)imidazo[1,2-a]pyridin-2-yl]-1,3,4-oxadiazol-2-yl}phenyl)oxy]propan-1-ol]
